Target: 52SFK (HAdV-52 short fiber knob) (human adenovirus 52, UniProt A0MK70)
Assay: SPR with immobilized knob
Format: binding
Conditions: oligoSia in solution

SMILES: CC(=O)N[C@H]1[C@H]([C@H](O)[C@H](O)CO)O[C@@](O[C@H](CO)[C@@H](O)[C@@H]2OC(O)(C(=O)O)C[C@H](O)[C@H]2NC(C)=O)(C(=O)O)C[C@@H]1O (stereo partly shown) [DP2, disialic acid]
- SPR with immobilized knob: the biggest increase in affinity was shown between DP2 and DP3

Reference: article PMC5939068 (Proceedings of the National Academy of Sciences of the …, 2018)
